Laboratory results reported in patent publication US12371454B2, “Cyclic peptide compound having Kras inhibitory action” (priority 2019, dated 2025).
Starred links: 1 amine or outer side, 2 acyl side, 3 side chain; linkers in the order of their positions; H or OH if unused. Positions of bridges follow the written chain, without caps; N, C: chain ends. Non-standard residues stand in square brackets, D forms with d. Residues, ends and D or L forms follow the SMILES beside them. *: point of attachment. hPhe(3-Cl-4-CF3) = N[C@@H](CCc1ccc(C(F)(F)F)c(Cl)c1)C(=O)O; NMePhe(4-CF3) = CN[C@@H](Cc1ccc(C(F)(F)F)cc1)C(=O)O; NMePhe(3-Cl) = CN[C@@H](Cc1cccc(Cl)c1)C(=O)O; NMePhe(4-Me) = CN[C@@H](Cc1ccc(C)cc1)C(=O)O; NMedβ3hAla = C[C@H](CC(=O)[*:2])N(C)[*:1]; Phe(4-Cl) = N[C@@H](Cc1ccc(Cl)cc1)C(=O)O; NMeGly(cPent) = CN[C@H](C(=O)O)C1CCCC1; Phe(3-I) = N[C@@H](Cc1cccc(I)c1)C(=O)O; dβ3hPip = O=C(C[C@H]1CCCCN1[*:1])[*:2]; NMe4Pal = CN[C@@H](Cc1ccncc1)C(=O)O; NMeCha = CN[C@@H](CC1CCCCC1)C(=O)O; NMeGly(cPr) = CN[C@H](C(=O)O)C1CC1; NEtLeu = CCN[C@@H](CC(C)C)C(=O)O; NMeChg = CN[C@H](C(=O)O)C1CCCCC1; NMeI = CC[C@H](C)[C@H](NC)C(=O)O; N(CH2CH2)2CF2 = FC1(F)CCN(*)CC1; NMeD = CN[C@@H](CC(=O)O)C(=O)O; NMeL = CN[C@@H](CC(C)C)C(=O)O; NMeV = CN[C@H](C(=O)O)C(C)C; d(β3hA) = C[C@@H](N)CC(=O)O; NMeA = CN[C@@H](C)C(=O)O; NMeAib = CNC(C)(C)C(=O)O; Piperidide = C1CCN(*)CC1; Pra = C#CC[C@H](N)C(=O)O; dNMeA = CN[C@H](C)C(=O)O; Ac5c = NC1(C(=O)O)CCCC1; Aze = O=C(O)[C@@H]1CCN1; Sar = CNCC(=O)O

Each molecule was assayed against T1, Kras and SOS1 (biotin-tagged human Kras loaded with GDP, His-tagged human SOS1) (Homo sapiens, UniProt P01116, G12D) (assay: Protein-protein interaction inhibition between Kras and SOS1 (KrasGl2D-SOS PPI) using AlphaScreen). Conditions: AlphaScreen; biotin-tagged human Kras loaded with GDP, His-tagged human SOS1; read-out: KRAS G12D-SOS PPI IC50.
T1 construct: made in house; host or cells: E. coli (stated for Kras only)
T1 sequence (P01116 1-188 isoform P01116-2 G12D): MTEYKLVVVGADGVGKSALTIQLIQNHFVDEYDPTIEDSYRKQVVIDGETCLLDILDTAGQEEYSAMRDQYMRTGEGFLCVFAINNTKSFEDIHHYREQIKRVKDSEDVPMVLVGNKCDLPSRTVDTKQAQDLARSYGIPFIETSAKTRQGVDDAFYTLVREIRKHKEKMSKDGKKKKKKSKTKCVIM
Format: binding
Summary of the method: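 Kras was produced in E. coli, purified, then loaded with GDP. It was paired via streptavidin acceptor beads with His-SOS1 held on nickel donor beads, and proximity signal at 520-620 nm was read after 680 nm illumination.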

Row | Structure (SMILES) | IC50 [nM]
1 | C#CC[C@@H]1NC(=O)[C@H](Cc2cccc(I)c2)NC(=O)CN(C)C(=O)[C@H](Cc2ccc(C(F)(F)F)cc2)N(C)C(=O)[C@@H]2CCN2C(=O)CN(C)C(=O)[C@H]([C@@H](C)CC)NC(=O)[C@H](CC(C)C)N(C)C(=O)C[C@@H](C)N(C)C(=O)[C@H](CC(C)C)NC(=O)C(C)(C)N(C)C1=O [Compound 1427] (cyclo([Aze][NMePhe(4-CF3)][Sar][Phe(3-I)][Pra][NMeAib]L[NMedβ3hAla][NMeL]I[Sar])) | 250
2 | CC[C@H](C)[C@@H]1NC(=O)[C@H](CC(C)C)N(C)C(=O)C[C@@H](C(=O)N(C)C)N(C)C(=O)[C@H](C(C)C)N(C)C(=O)C2(CCCC2)NC(=O)[C@H](CC(=O)N2CCC(F)(F)CC2)N(C)C(=O)[C@H](CCc2ccc(C(F)(F)F)c(Cl)c2)NC(=O)CN(C)C(=O)[C@H](CC2CCCCC2)N(C)C(=O)CN(C)C(=O)CN(C)C1=O [Compound 218] ([NMeL]I[Sar][Sar][NMeCha][Sar][hPhe(3-Cl-4-CF3)][NMeD](N(CH2CH2)2CF2)[Ac5c][NMeV][NMeD]-NMe2; lactam N-11) | 1.9
3 | CC[C@H](C)[C@@H]1NC(=O)[C@H](CC(C)C)N(C)C(=O)C[C@@H](C(=O)N(C)C)N(C)C(=O)[C@H](C2CCCC2)N(C)C(=O)[C@H](C(C)C)NC(=O)[C@H](Cc2ccncc2)N(C)C(=O)[C@H](CCc2ccc(C(F)(F)F)c(Cl)c2)NC(=O)CN(C)C(=O)[C@H](CC2CCCCC2)N(C)C(=O)[C@@H]2CCN2C(=O)[C@H](C)N(C)C1=O [Compound 1982] ([NMeL]I[NMeA][Aze][NMeCha][Sar][hPhe(3-Cl-4-CF3)][NMe4Pal]V[NMeGly(cPent)][NMeD]-NMe2; lactam N-11) | 47
4 | CC[C@H](C)[C@@H]1NC(=O)[C@H](CC(C)C)N(C)C(=O)C[C@H]2CCCCN2C(=O)[C@H]([C@@H](C)CC)N(C)C(=O)C2(CCCC2)NC(=O)[C@@H]2CCCN2C(=O)[C@H](CCc2ccc(C(F)(F)F)c(Cl)c2)NC(=O)CN(C)C(=O)[C@H](Cc2ccc(C)cc2)N(C)C(=O)[C@@H]2CCN2C(=O)[C@H](C)N(C)C1=O [Compound 1912] (cyclo([Ac5c][NMeI][dβ3hPip][NMeL]I[NMeA][Aze][NMePhe(4-Me)][Sar][hPhe(3-Cl-4-CF3)]P)) | 27
5 | CC[C@H](C)[C@@H]1NC(=O)[C@H](C)N(C)C(=O)C[C@@H](C)NC(=O)[C@H](C2CCCC2)N(C)C(=O)C2(CCCC2)NC(=O)[C@@H]2CCCN2C(=O)[C@H](CCc2ccc(C(F)(F)F)c(Cl)c2)NC(=O)[C@@H](C)N(C)C(=O)[C@H](Cc2cccc(Cl)c2)N(C)C(=O)[C@@H]2CCN2C(=O)[C@H](C)N(C)C1=O [Compound 42] (cyclo([Ac5c][NMeGly(cPent)][d(β3hA)][NMeA]I[NMeA][Aze][NMePhe(3-Cl)][dNMeA][hPhe(3-Cl-4-CF3)]P)) | 190
6 | CC[C@H](C)[C@@H]1NC(=O)[C@H](CC(C)C)N(C)C(=O)C[C@@H](C(=O)N2CCCCC2)N(C)C(=O)[C@H](CC(C)C)NC(=O)C(C)(C)N(C)C(=O)[C@H](Cc2ccc(Cl)cc2)NC(=O)[C@H](Cc2cccc(I)c2)NC(=O)CN(C)C(=O)[C@H](CC2CCCCC2)N(C)C(=O)CN(C)C(=O)CN(C)C1=O [Compound 330] ([NMeL]I[Sar][Sar][NMeCha][Sar][Phe(3-I)][Phe(4-Cl)][NMeAib]L[NMeD]-Piperidide; lactam N-11) | 80
7 | CC[C@H](C)[C@@H]1NC(=O)[C@H](CC(C)C)N(C)C(=O)C[C@@H](C(=O)N2CCCCC2)N(C)C(=O)[C@H](C2CCCCC2)N(C)C(=O)C2(CCCC2)NC(=O)[C@@H]2CCCN2C(=O)[C@H](CCc2ccc(C(F)(F)F)c(Cl)c2)NC(=O)CN(C)C(=O)[C@H](C2CC2)N(C)C(=O)CN(C)C(=O)CN(C)C1=O [Compound 1666] ([NMeL]I[Sar][Sar][NMeGly(cPr)][Sar][hPhe(3-Cl-4-CF3)]P[Ac5c][NMeChg][NMeD]-Piperidide; lactam N-11) | 1.1
8 | CC[C@H](C)[C@@H]1NC(=O)[C@H](C)N(C)C(=O)C[C@@H](C)NC(=O)[C@H](C2CCCC2)N(C)C(=O)C2(CCCC2)NC(=O)[C@@H]2CCCN2C(=O)[C@H](CCc2ccc(C(F)(F)F)c(Cl)c2)NC(=O)CN(C)C(=O)[C@H](CC2CCCCC2)N(C)C(=O)CN(C)C(=O)CN(C)C1=O [Compound 1478] (cyclo([Ac5c][NMeGly(cPent)][d(β3hA)][NMeA]I[Sar][Sar][NMeCha][Sar][hPhe(3-Cl-4-CF3)]P)) | 3
9 | CC[C@H](C)[C@@H]1NC(=O)[C@H](CC(C)C)N(CC)C(=O)C[C@@H](C(=O)N(C)C)N(C)C(=O)[C@H](C2CCCC2)N(C)C(=O)C2(CCCC2)NC(=O)[C@@H]2CCCN2C(=O)[C@H](CCc2ccc(C(F)(F)F)c(Cl)c2)NC(=O)CN(C)C(=O)[C@H](Cc2ccc(C)cc2)N(C)C(=O)[C@@H]2CCN2C(=O)[C@H](C)NC1=O [Compound 1282] ([NEtLeu]IA[Aze][NMePhe(4-Me)][Sar][hPhe(3-Cl-4-CF3)]P[Ac5c][NMeGly(cPent)][NMeD]-NMe2; lactam N-11) | 0.81
